Experimental data: patent publication US12421211B2, “Heterocyclic compounds” (Hoffmann-La Roche Inc., priority 2021, dated 2025)
Where a name gives a salt, the structure may show the parent alone.

tested on: Acinetobacter baumannii ATCC17961; test: Antimicrobial susceptibility testing: 90% growth inhibitory concentration (IC90) determination; type: cell-based; details: Acinetobacter baumannii, ATCC17961, 16 h, 90% growth inhibitory concentration, Acinetobacter baumannii ATCC17961, Iso-Sensitest broth, OD 600 nm over 16 h; read-out: ATCC 17961 IC90
Procedure, shortened: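 Growth inhibition derived in log phase from OD600 kinetics (every 20 minutes, 16h, 35±2° C) of ATCC17961 in Iso-Sensitest medium, inoculum ~5×10^5 CFU/ml. Compounds tested as twofold series, 10 points (e.g. 50 to 0.097 μM final); IC90 and IC50 reported.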

Row | SMILES | IC90 [nM]
1 | COCCn1ncc(-c2ccc(-c3cnc(C(=O)Nc4ccc(C(=O)N5CCN(C(=O)C6CC[N+](C)(C)CC6)CC5)c(Cl)c4)n3C)c(F)c2F)c1Cl [Example F31, N-[3-chloro-4-[4-(1,1-dimethylpiperidin-1-ium-4-carbonyl)piperazine-1-carbonyl]phenyl]-5-[4-[5-chloro-1-(2-methoxyethyl)pyrazol-4-yl]-2,3-difluoro-phenyl]-1-methyl-imidazole-2-carboxamide; formate] | 67
2 | Cn1c(-c2ccc(-c3cn(CCS(C)(=O)=O)nc3C(F)(F)F)c(F)c2F)cnc1C(=O)Nc1ccc(C(=O)N2CCN(C(=O)C3CC[N+](C)(C)CC3)CC2)c(Cl)c1 [Example F32, N-[3-chloro-4-[4-(1,1-dimethylpiperidin-1-ium-4-carbonyl)piperazine-1-carbonyl]phenyl]-5-[2,3-difluoro-4-[1-(2-methylsulfonylethyl)-3-(trifluoro-methyl)pyrazol-4-yl]phenyl]-1-methyl-imidazole-2-carboxamide; formate] | 580
3 | CC(O)Cn1cc(-c2ccc(-c3cnc(C(=O)Nc4ccc(C(=O)N5CCN(C(=O)C6CC[N+](C)(C)CC6)CC5)c(Cl)c4)n3C)c(F)c2F)c(C(F)(F)F)n1 (centres unmarked) [Example F33, N-[3-chloro-4-[4-(1,1-dimethylpiperidin-1-ium-4-carbonyl)piperazine-1-carbonyl]phenyl]-5-[2,3-difluoro-4-[1-(2-hydroxypropyl)-3-(trifluoromethyl)pyrazol-4-yl]phenyl]-1-methyl-imidazole-2-carboxamide; formate] | 360
4 | Cn1c(-c2ccc(-c3cn(CCCC(N)=O)nc3C(F)(F)F)c(F)c2F)cnc1C(=O)Nc1ccc(C(=O)N2CCN(C(=O)C3CC[N+](C)(C)CC3)CC2)c(Cl)c1 [Example F34, 5-[4-[1-(4-amino-4-oxo-butyl)-3-(trifluoro-methyl)pyrazol-4-yl]-2,3-difluoro-phenyl]-N-[3-chloro-4-[4-(1,1-dimethylpiperidin-1-ium-4-carbonyl)piperazine-1-carbonyl]phenyl]-1-methyl-imidazole-2-carboxamide; formate] | 230
5 | COCCn1cc(-c2ccc(-c3cnc(C(=O)Nc4ccc(C(=O)N5CCN(C(=O)C6CC[N+](C)(C)CC6)CC5)c(Cl)c4)n3C)c(F)c2F)c(C(F)(F)F)n1 [Example F36, N-[3-chloro-4-[4-(1,1-dimethylpiperidin-1-ium-4-carbonyl)piperazine-1-carbonyl]phenyl]-5-[2,3-difluoro-4-[1-(2-methoxyethyl)-3-(trifluoromethyl)pyrazol-4-yl]phenyl]-1-methyl-imidazole-2-carboxamide; formate] | 580
6 | Cn1c(-c2ccc(-c3cnn(CCN4CCOCC4)c3C(F)(F)F)c(F)c2F)cnc1C(=O)Nc1ccc(C(=O)N2CCN(C(=O)C3CC[N+](C)(C)CC3)CC2)c(Cl)c1 [Example F37, N-[3-chloro-4-[4-(1,1-dimethylpiperidin-1-ium-4-carbonyl)piperazine-1-carbonyl]phenyl]-5-[2,3-difluoro-4-[1-(2-morpholinoethyl)-5-(trifluoromethyl)pyrazol-4-yl]phenyl]-1-methyl-imidazole-2-carboxamide; formate] | 690
7 | COCCCn1cc(-c2ccc(-c3cnc(C(=O)Nc4ccc(C(=O)N5CCN(C(=O)C6CC[N+](C)(C)CC6)CC5)c(Cl)c4)n3C)c(F)c2F)c(C(F)(F)F)n1 [Example F38, N-[3-chloro-4-[4-(1,1-dimethylpiperidin-1-ium-4-carbonyl)piperazine-1-carbonyl]phenyl]-5-[2,3-difluoro-4-[1-(3-methoxypropyl)-3-(trifluoromethyl)pyrazol-4-yl]phenyl]-1-methyl-imidazole-2-carboxamide; formate] | 760
8 | Cn1c(-c2ccc(-c3c[nH]nc3-c3cccc(F)c3)c(F)c2F)cnc1C(=O)Nc1ccc(C(=O)N2CCN(C(=O)C3CC[N+](C)(C)CC3)CC2)c(Cl)c1 [Example F45, N-[3-chloro-4-[4-(1,1-dimethylpiperidin-1-ium-4-carbonyl)piperazine-1-carbonyl]phenyl]-5-[2,3-difluoro-4-[3-(3-fluorophenyl)-1H-pyrazol-4-yl]phenyl]-1-methyl-imidazole-2-carboxamide; formate] | 310

Second part, the molecule after the results:

Row | IC90 [nM] | SMILES
9 | 340 | Cc1nn(CC2CCOCC2)cc1-c1ccc(-c2cnc(C(=O)Nc3ccc(C(=O)N4CCN(C(=O)C5CC[N+](C)(C)CC5)CC4)c(Cl)c3)n2C)c(F)c1F [Example F39, N-[3-chloro-4-[4-(1,1-dimethylpiperidin-1-ium-4-carbonyl)piperazine-1-carbonyl]phenyl]-5-[2,3-difluoro-4-[3-methyl-1-(tetrahydropyran-4-ylmethyl)pyrazol-4-yl]phenyl]-1-methyl-imidazole-2-carboxamide; formate]
10 | 610 | Cc1nn(-c2ccc(N)cn2)cc1-c1ccc(-c2cnc(C(=O)Nc3ccc(C(=O)N4CCN(C(=O)C5CC[N+](C)(C)CC5)CC4)c(Cl)c3)n2C)c(F)c1F [Example F40, 5-[4-[1-(5-amino-2-pyridyl)-3-methyl-pyrazol-4-yl]-2,3-difluoro-phenyl]-N-[3-chloro-4-[4-(1,1-dimethylpiperidin-1-ium-4-carbonyl)piperazine-1-carbonyl]phenyl]-1-methyl-imidazole-2-carboxamide; chloride]
11 | 150 | Cc1nn(Cc2ccccn2)cc1-c1ccc(-c2cnc(C(=O)Nc3ccc(C(=O)N4CCN(C(=O)C5CC[N+](C)(C)CC5)CC4)c(Cl)c3)n2C)c(F)c1F [Example F41, N-[3-chloro-4-[4-(1,1-dimethylpiperidin-1-ium-4-carbonyl)piperazine-1-carbonyl]phenyl]-5-[2,3-difluoro-4-[3-methyl-1-(2-pyridylmethyl)pyrazol-4-yl]phenyl]-1-methyl-imidazole-2-carboxamide; formate]
12 | 210 | Cc1nn(-c2cn[nH]c2)cc1-c1ccc(-c2cnc(C(=O)Nc3ccc(C(=O)N4CCN(C(=O)C5CC[N+](C)(C)CC5)CC4)c(Cl)c3)n2C)c(F)c1F [Example F42, N-[3-chloro-4-[4-(1,1-dimethylpiperidin-1-ium-4-carbonyl)piperazine-1-carbonyl]phenyl]-5-[2,3-difluoro-4-[3-methyl-1-(1H-pyrazol-4-yl)pyrazol-4-yl]phenyl]-1-methyl-imidazole-2-carboxamide; formate]
13 | 570 | Cc1nn(Cc2ccc(N)cn2)cc1-c1ccc(-c2cnc(C(=O)Nc3ccc(C(=O)N4CCN(C(=O)C5CC[N+](C)(C)CC5)CC4)c(Cl)c3)n2C)c(F)c1F [Example F43, 5-[4-[1-[(5-amino-2-pyridyl)methyl]-3-methyl-pyrazol-4-yl]-2,3-difluoro-phenyl]-N-[3-chloro-4-[4-(1,1-dimethylpiperidin-1-ium-4-carbonyl)piperazine-1-carbonyl]phenyl]-1-methyl-imidazole-2-carboxamide; chloride]
14 | 730 | Cn1nccc1-c1n[nH]cc1-c1ccc(-c2cnc(C(=O)Nc3ccc(C(=O)N4CCN(C(=O)C5CC[N+](C)(C)CC5)CC4)c(Cl)c3)n2C)c(F)c1F [Example F44, N-[3-chloro-4-[4-(1,1-dimethylpiperidin-1-ium-4-carbonyl)piperazine-1-carbonyl]phenyl]-5-[2,3-difluoro-4-[3-(2-methylpyrazol-3-yl)-1H-pyrazol-4-yl]phenyl]-1-methyl-imidazole-2-carboxamide; formate]
